Calls of active or inactive are those of the source.
Experiments:
[1] = biological target: Prothrombin (Homo sapiens, UniProt P00734); experiment: Thrombin 1536 HTS Dose Response Confirmation. [Related pubchem assays: 1046 (Thrombin 1536 HTS; hits were confirmed in this assay)]; assay type: functional
[2] = biological target: T1, Coagulation factor XII (Homo sapiens, UniProt P00748); assay type: functional;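 also: activated factor XIIa alpha cleaving a fluorogenic AMC peptide substrate; inhibitor potency from loss of enzyme activity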
T1 sequence (P00748 whole entry): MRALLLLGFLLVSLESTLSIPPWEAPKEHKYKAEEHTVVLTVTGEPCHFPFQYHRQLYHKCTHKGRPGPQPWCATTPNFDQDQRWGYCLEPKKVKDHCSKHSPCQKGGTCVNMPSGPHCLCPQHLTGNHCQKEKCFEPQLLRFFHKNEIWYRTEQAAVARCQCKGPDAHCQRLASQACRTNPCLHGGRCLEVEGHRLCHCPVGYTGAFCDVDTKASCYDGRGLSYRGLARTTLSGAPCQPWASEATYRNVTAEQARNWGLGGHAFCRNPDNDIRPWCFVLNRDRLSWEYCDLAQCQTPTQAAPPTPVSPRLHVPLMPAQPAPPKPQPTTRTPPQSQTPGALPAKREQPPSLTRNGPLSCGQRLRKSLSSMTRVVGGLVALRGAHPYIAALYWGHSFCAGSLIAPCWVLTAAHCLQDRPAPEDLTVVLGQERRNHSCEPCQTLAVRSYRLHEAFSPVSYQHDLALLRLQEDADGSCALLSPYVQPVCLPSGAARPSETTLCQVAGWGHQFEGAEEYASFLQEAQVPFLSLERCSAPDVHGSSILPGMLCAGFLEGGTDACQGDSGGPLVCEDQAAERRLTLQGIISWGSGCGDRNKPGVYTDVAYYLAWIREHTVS

[3] = HGIII-sPLA2 enzyme inhibition potency – biochemical, QFRET, IC50, dose response (AID 743457);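 also: green fluorescence rise as the enzyme cleaves BODIPY PC-A2 in liposomes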
[4] = biological target: T2, DNA repair protein RAD52 homolog (Homo sapiens, UniProt P43351); assay type: functional, biochemical
T2 sequence (P43351 whole entry): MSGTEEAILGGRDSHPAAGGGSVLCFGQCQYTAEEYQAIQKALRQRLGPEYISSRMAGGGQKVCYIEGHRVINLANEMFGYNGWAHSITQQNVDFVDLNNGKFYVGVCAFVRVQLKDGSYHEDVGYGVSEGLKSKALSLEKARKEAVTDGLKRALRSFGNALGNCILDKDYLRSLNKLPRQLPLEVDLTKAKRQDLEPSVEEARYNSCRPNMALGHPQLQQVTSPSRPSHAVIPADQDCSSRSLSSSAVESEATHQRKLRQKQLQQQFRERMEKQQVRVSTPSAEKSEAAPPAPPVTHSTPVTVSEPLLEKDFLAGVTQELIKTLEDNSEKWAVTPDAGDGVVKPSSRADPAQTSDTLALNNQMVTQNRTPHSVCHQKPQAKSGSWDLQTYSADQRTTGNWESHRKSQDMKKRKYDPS

[5] = OVCAR8 cell viability loss – plate reader, dry powder samples, PAX8 project, dose response (AID 743197); assay type: functional, cell-based; settings: OVCAR-8
[6] = IGROV1 cell killing – plate reader, dry powder samples, PAX8 inhibitor project, dose response (AID 743043); assay type: functional, cell-based; settings: IGROV-1
[7] = biological target: Paired box protein Pax-8 (Homo sapiens, UniProt Q06710); experiment: PAX8 transcriptional activity inhibition in RMG-I – RMG-I cells, luciferase, cherry-pick, dose response (AID 687027); assay type: functional, cell-based;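 also: luciferase reporter driven by Pax8 target thyroperoxidase promoter measured by SteadyGlo luminescence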
Paired box protein Pax-8, sequence (Q06710 whole entry): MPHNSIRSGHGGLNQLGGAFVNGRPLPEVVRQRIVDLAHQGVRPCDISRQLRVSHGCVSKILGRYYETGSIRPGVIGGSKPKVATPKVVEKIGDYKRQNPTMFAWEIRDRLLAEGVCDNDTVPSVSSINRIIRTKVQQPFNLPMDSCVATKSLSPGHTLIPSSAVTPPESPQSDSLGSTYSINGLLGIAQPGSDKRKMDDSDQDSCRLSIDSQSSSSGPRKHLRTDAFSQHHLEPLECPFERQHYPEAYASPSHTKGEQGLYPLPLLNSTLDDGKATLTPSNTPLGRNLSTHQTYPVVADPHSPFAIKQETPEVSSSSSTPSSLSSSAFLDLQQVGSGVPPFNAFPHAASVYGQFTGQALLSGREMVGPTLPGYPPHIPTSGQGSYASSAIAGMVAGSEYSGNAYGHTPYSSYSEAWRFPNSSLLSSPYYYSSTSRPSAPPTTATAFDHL

[8] = tested on: HeLa; experiment: ATP-based viability loss in HeLa cells – cell-based, CellTiter-Glo luminescence, cherry-pick samples, cytotoxicity control for MITF activator project, dose response (AID 540259); assay type: functional; settings: Homo sapiens
[9] = A549 cell cytotoxicity, dose response, cytotoxicity control, plate reader, cherry-pick, antagonist series (AID 743412); assay type: functional, cell-based
[10] = biological target: Cytochrome P450 2C9 (Homo sapiens, UniProt P11712)
[11] = biological target: T3, Calpain-2 catalytic subunit (Sus scrofa, UniProt P43367); experiment: m-calpain protease blockers, concentration series – biochemical, fluorogenic peptide substrate, dose response (AID 1420); assay type: functional
T3 sequence (P43367 whole entry): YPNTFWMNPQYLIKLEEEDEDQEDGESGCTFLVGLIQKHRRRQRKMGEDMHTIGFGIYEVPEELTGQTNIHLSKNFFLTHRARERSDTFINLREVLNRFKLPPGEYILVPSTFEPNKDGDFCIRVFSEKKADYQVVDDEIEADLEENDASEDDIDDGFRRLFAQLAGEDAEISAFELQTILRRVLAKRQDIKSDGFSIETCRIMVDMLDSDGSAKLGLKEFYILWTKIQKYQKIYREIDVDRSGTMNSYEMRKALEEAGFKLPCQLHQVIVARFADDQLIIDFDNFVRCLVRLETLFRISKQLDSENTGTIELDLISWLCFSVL

[12] = biological target: T4, Polyadenylate-binding protein 1 (Homo sapiens, UniProt P11940); experiment: MLLE binding blockers, Cy5 peptide tracer – biochemical, fluorescence polarization, Cy5-PAM2 peptide, secondary, miRNA deadenylation inhibitor project, dose response (AID 602260); assay type: functional; settings: read-out: IC50_Mean
T4 sequence (P11940 whole entry, the tested form may be a part): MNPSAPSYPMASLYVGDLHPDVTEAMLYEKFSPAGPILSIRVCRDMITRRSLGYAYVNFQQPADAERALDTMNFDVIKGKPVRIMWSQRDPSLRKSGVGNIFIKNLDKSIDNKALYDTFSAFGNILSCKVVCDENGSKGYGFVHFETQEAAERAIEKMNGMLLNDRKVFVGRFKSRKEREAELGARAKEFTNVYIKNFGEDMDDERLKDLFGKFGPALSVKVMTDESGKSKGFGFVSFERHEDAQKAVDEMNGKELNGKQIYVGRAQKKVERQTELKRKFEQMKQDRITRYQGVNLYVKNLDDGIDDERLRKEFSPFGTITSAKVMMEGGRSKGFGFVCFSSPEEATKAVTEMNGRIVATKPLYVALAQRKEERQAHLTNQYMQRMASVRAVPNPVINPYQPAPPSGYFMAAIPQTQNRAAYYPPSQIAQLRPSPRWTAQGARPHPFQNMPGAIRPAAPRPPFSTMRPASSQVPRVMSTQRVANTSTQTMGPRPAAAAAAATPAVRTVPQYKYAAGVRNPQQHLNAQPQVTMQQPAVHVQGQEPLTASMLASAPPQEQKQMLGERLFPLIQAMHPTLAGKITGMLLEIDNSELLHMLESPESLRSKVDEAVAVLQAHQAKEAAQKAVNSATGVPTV

[13] = biological target: T4, Polyadenylate-binding protein 1; experiment: MLLE domain peptide-binding blockers, IC50 – biochemical, fluorescence polarization, FITC-PAM2 peptide, dose response (AID 602259); assay type: functional; settings: read-out: IC50_Mean
[14] = biological target: T5, Corticotropin-releasing factor receptor 2/Corticotropin-releasing factor-binding protein (Homo sapiens, UniProt P24387+Q13324); experiment: activators of CRF receptor 2 with binding protein – uHTS hits, confirmation (AID 602473); assay type: functional; settings: read-out: EC50_Mean
T5 sequence (Q13324 whole entry): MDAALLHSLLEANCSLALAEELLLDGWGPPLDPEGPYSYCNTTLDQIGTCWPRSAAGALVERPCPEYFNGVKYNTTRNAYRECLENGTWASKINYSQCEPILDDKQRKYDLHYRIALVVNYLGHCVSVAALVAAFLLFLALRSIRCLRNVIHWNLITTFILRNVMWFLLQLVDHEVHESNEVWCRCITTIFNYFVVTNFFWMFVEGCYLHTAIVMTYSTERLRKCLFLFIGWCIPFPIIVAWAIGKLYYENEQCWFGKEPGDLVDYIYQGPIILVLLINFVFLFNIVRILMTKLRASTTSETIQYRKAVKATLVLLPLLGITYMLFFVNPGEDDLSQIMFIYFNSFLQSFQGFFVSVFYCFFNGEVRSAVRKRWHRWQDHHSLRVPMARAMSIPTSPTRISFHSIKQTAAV
T5 sequence (P24387 whole entry): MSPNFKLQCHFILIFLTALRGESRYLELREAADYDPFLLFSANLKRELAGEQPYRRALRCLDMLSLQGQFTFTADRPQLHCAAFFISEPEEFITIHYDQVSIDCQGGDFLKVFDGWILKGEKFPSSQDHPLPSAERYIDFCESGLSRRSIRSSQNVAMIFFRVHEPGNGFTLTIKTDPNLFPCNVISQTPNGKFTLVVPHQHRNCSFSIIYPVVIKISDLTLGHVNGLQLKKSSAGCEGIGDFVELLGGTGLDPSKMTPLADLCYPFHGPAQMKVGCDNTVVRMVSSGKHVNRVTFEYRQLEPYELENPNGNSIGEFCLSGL

[15] = biological target: Voltage-dependent T-type calcium channel subunit alpha-1H (Homo sapiens, UniProt O95180); assay type: functional;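 also: channel activity triggered by adding a high calcium stimulation buffer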
[16] = biological target: Cytochrome P450 3A4 (Homo sapiens, UniProt P08684); settings: Potency;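 also: confirmatory qHTS run detecting inhibitors and substrates of CYP3A4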
Cytochrome P450 3A4, sequence (P08684 whole entry): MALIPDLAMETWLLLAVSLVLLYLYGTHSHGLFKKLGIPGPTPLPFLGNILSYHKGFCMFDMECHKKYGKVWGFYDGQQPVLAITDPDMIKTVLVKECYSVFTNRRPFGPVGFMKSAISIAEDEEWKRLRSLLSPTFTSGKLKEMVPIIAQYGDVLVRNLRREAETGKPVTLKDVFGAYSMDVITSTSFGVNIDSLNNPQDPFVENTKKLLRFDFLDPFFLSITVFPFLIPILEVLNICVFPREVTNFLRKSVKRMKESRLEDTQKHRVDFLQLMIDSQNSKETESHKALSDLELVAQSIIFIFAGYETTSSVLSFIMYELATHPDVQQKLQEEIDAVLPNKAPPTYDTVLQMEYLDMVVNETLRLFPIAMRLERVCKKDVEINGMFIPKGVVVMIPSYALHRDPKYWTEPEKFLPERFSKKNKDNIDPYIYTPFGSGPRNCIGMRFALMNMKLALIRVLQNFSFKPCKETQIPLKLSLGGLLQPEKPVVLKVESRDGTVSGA

[17] = biological target: T6, Voltage-gated N-type calcium channel alpha-1B subunit/Amyloid beta A4 precursor protein-binding family A member 1 (Homo sapiens, UniProt Q00975+Q02410); assay type: protein assay
T6 sequence (Q00975 whole entry): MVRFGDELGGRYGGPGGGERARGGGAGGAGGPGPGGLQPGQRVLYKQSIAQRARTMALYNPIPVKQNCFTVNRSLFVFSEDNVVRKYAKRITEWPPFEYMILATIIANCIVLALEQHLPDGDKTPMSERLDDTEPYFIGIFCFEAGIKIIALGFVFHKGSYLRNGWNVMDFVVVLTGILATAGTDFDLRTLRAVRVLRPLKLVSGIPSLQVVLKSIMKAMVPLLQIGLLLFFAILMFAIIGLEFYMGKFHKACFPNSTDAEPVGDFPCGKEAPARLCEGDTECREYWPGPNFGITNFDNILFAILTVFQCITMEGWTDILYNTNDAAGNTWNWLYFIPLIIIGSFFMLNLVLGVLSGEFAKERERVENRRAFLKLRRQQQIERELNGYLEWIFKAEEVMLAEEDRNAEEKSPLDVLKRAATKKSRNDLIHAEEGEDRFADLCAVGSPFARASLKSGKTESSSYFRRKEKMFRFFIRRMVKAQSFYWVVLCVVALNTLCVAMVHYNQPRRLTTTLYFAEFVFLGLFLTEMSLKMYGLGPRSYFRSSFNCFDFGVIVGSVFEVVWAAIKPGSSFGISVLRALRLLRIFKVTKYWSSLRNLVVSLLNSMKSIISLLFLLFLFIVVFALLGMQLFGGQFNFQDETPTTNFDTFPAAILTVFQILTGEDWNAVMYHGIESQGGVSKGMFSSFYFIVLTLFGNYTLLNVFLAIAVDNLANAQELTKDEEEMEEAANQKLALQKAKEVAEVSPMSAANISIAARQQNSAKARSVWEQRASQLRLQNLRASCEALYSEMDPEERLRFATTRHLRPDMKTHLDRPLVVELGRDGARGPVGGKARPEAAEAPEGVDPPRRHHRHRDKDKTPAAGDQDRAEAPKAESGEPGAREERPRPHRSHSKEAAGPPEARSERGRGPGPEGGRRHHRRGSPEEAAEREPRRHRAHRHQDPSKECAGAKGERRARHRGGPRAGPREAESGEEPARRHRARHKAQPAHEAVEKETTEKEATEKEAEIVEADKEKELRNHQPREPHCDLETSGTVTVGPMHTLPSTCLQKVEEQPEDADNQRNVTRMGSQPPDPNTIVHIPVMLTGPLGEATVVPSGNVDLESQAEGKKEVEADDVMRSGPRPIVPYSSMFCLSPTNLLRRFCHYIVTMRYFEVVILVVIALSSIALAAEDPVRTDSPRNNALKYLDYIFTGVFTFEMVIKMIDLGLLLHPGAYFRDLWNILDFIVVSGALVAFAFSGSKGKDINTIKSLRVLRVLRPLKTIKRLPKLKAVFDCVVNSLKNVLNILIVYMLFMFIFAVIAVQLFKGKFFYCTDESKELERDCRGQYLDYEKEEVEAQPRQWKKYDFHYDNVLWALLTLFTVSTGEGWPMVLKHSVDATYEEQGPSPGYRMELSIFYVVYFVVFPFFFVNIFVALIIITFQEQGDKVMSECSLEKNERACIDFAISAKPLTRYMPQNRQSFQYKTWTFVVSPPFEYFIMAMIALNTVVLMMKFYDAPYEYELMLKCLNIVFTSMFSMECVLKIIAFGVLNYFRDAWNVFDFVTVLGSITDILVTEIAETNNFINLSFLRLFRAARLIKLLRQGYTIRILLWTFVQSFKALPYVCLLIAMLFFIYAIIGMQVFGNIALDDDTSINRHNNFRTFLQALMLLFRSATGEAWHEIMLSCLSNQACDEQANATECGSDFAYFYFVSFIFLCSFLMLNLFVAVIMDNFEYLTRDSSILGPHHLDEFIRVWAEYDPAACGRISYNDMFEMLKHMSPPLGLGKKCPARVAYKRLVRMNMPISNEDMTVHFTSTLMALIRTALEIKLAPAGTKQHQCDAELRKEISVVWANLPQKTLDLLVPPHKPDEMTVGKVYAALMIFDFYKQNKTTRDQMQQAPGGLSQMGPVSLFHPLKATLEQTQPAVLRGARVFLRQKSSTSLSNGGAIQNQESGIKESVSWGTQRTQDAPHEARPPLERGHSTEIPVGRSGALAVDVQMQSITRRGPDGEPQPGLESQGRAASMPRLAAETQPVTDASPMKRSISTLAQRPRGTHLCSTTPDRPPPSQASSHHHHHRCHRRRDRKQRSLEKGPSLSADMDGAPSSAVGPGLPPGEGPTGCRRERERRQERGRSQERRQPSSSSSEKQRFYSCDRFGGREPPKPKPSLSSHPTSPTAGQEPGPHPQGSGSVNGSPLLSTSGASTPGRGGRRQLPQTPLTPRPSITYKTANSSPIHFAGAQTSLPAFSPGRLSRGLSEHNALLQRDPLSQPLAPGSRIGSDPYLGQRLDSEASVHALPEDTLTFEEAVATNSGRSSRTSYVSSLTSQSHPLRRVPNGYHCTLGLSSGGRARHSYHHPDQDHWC
T6 sequence (Q02410 whole entry): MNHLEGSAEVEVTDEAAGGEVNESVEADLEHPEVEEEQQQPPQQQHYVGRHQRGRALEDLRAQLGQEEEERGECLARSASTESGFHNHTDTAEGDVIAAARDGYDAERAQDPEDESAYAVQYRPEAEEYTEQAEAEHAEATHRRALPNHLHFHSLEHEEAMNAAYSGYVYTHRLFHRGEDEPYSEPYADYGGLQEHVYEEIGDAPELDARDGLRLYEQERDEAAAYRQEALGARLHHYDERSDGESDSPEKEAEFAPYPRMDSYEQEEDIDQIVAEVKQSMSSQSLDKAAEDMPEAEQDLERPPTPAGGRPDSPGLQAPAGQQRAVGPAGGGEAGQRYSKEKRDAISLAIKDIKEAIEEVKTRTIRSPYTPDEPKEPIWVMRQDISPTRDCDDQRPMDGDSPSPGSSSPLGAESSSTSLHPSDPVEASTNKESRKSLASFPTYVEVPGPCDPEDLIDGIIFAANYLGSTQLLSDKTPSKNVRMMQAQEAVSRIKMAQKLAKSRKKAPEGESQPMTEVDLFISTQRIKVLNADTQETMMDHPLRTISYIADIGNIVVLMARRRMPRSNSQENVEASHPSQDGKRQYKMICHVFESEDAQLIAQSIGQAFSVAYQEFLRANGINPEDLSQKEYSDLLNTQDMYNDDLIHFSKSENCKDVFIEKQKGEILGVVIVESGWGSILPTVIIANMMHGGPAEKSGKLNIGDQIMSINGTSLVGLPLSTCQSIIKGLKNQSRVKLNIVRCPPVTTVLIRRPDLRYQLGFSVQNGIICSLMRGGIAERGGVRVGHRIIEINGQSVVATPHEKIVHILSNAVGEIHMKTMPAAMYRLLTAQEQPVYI

[18] = biological target: T6, Voltage-gated N-type calcium channel alpha-1B subunit/Amyloid beta A4 precursor protein-binding family A member 1; assay type: protein assay; remark: listed apart in the source
[19] = NIH-3T3 fibroblast cytotoxicity, dose response, cytotoxicity control, cell-based, fluorescence, Alamar Blue, secondary assay (AID 2327); assay type: functional;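 also: NIH-3T3 mouse fibroblasts cultured with fluconazole at 8 µg/mL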
[20] = biological target: T7, Ubiquitin-conjugating enzyme E2 N (Homo sapiens, UniProt P61088); assay type: functional;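 also: Dose-response confirmation in a TR-FRET assay detecting UBC13-driven polyubiquitin chain formation, inhibition measured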
T7 sequence (P61088 whole entry): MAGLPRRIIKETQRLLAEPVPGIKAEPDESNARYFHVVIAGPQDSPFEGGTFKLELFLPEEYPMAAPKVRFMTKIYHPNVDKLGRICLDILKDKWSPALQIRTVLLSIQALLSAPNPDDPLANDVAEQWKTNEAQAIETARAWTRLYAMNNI

[21] = cells; assay type: functional, cell-based
[22] = cells; assay type: functional, cell-based; remark: listed apart in the source

SMILES: CCn1c(C)nc2cc(C(=O)NN=C(S)Nc3ccc(C)cc3)ccc21
- IC50 [1]: > 50 µM (not active)
- IC50 [2]: > 50 µM (inactive)

SMILES: O=C(Cc1cccs1)Nc1nnc(CCc2ccccc2)s1
- IC50 [1]: 25.4 µM (active)

SMILES: COc1ccccc1N=C(S)NNC(=O)c1nn(C)c(C)c1Cl
- IC50 [3]: > 122 µM (inactive)

SMILES: Cc1ccc(F)cc1-c1cc2nc(NCCCN(C)C)n(C)c(=O)c2s1
- AC50 [4]: 19.2 µM (active)

SMILES: C[C@H](CO)N1C[C@H](C)[C@@H](CN(C)Cc2ccc(Oc3ccccc3)cc2)Oc2ccc(NS(=O)(=O)c3ccc(F)cc3)cc2CC1=O
- AC50 [5]: 63.3 µM (active)
- AC50 [6]: 40 µM (active)
- AC50 [7]: 6.47 µM (active)

SMILES: c1ccn(-c2ccc(-c3cc[nH]n3)cc2)c1
- AC50 [8]: 90.9 µM (active)

SMILES: COc1cc(/C=N/O)ccc1OCc1ccccc1Cl
- AC50 [8]: 40.7 µM (active)

SMILES: COc1ccc(CCC(=O)NN=C(S)Nc2cccc(C(C)=O)c2)cc1
- IC50 [3]: > 122 µM (inactive)

SMILES: COc1ccc2[nH]c3c(c2c1)CCN1C(=O)N([C@@H](C)C(=O)NCc2ccc(C)cc2)C(=O)[C@]31C
- AC50 [9]: > 52 µM (inactive)

SMILES: OC1CC2CCC(C1)N2CCCN1c2ccccc2Sc2ccc(Cl)cc21 (configuration not stated)
- AC50 [4]: 12.9 µM (active)

SMILES: CCCC(=O)n1nc(-c2cccnc2)nc1NCc1ccccc1
- IC50 [1]: 0.00538 µM (active)

SMILES: CCOC(=O)C(/C=N/c1cccc(C)c1C)=C(/O)OCC
- AC50 [10]: inconclusive
- IC50 [1]: > 50 µM (not active)
- IC50 [11]: 14 µM (not active)

SMILES: CN(C[C@H]1N[C@@H](CO)[C@@H]1c1ccc(-c2cccc(F)c2)cc1)S(C)(=O)=O
- AC50 [5]: 23.7 µM (active)
- AC50 [6]: 14.9 µM (active)
- AC50 [7]: 10.3 µM (active)

SMILES: O=C1c2ccccc2NC(c2cccc(Cl)c2)N1N=C1CCCCCC1 (configuration not stated)
- AC50 [8]: 200 µM (active)

SMILES: O=C(NC(=S)NNC(=O)c1ccccc1O)c1ccc([N+](=O)[O-])cc1
- IC50 [12]: > 66 µM (inactive)
- IC50 [13]: > 66 µM (inactive)
- IC50 [3]: > 122 µM (inactive)
- EC50 [14]: > 53 µM (inactive)

SMILES: O=C(CSCc1ccc(Cl)cc1)NCc1ccc2c(c1)OCO2
- EC50 [15]: 4.2 µM (active)

SMILES: Nc1c(Br)cc([N+](=O)[O-])cc1[N+](=O)[O-]
- AC50 [16]: 25.1 µM (inconclusive)

SMILES: CC1=C(C(=O)OCc2ccccc2)C(c2ccc(C3CCCCC3)cc2)NC(=O)N1CCCCCC(=O)O (configuration not stated)
- AC50 [16]: 7.94 µM (inconclusive)

SMILES: C[C@]12CC[C@@H]3c4ccc(OC(=O)c5ccccc5)cc4CC[C@H]3[C@@H]1CCC2=O
- AC50 [16]: 7.94 µM (inconclusive)

SMILES: COC(=O)c1ccccc1NC(=O)C1CC(=O)N(c2ccc(F)cc2)C1 (configuration not stated)
- IC50 [1]: > 50 µM (not active)

SMILES: O=[N+]([O-])c1ccc2c3c(cccc13)CC2
- AC50 [16]: 31.6 µM (inconclusive)

SMILES: CCc1nc2sc3c(=O)cc(O)[nH]c3c2cc1C
- IC50 [17]: > 56.8 µM (not active)
- IC50 [18]: 24.8 µM (active)

SMILES: O=c1c2ccccc2nc(N2CCN(c3ccccc3)CC2)n1Cc1ccccc1
- EC50 [15]: 9.51 µM (active)

SMILES: COc1ccc2nc(NC(=O)/C=C/c3ccc4c(c3)OCO4)sc2c1
- IC50 [17]: 19.5 µM (active)
- IC50 [18]: 41.5 µM (active)

SMILES: N=C(N)Nc1ccc2[nH]c3c(c2c1)C[C@@]1(O)[C@H]2Cc4ccc(O)c5c4[C@@]1(CCN2CC1CC1)[C@H]3O5
- AC50 [4]: 8.43 µM (active)

SMILES: COc1cc(NC(=O)c2ccc(F)cc2)ccc1NC(=O)c1cc2ccccc2o1
- IC50 [17]: 4.02 µM (active)
- IC50 [18]: > 50 µM (inactive)

SMILES: Sc1nnc(-c2ccc(Cl)cc2Cl)n1Cc1ccccc1
- IC50 [3]: > 122 µM (inactive)

SMILES: CCOC(=O)c1c(-c2ccccc2)oc2ccc(OCC(O)CN(C)C)cc12 (configuration not stated)
- EC50 [19]: 10 µM (inconclusive)
- AC50 [4]: 15.5 µM (active)
- IC50 [20]: > 20 µM (inactive)
- EC50 [21]: 21.7 µM (active)
- EC50 [22]: > 350 µM (not active)

SMILES: COc1ccc(Cl)cc1NC(=O)c1nnn(CC(=O)Nc2ccc(OC)c(OC)c2)c1N
- IC50 [17]: > 56.8 µM (not active)
- IC50 [18]: > 50 µM (inactive)

Reference: ChEMBL document CHEMBL1201862, “PubChem BioAssay data set” (2004)
